Values after ≈ are worked out from the molar mass of the structure shown.

Results on two compounds are retold here after ChEMBL document CHEMBL1158920, “Tubulosine: an antitumor constituent of Pogonopus speciosus” (J Nat Prod, 1990).

One data set relates to Artemia. The data set is described as follows: Toxicity in brine shrimp. Particulars: in vivo. The data set is classed as organism-based.
A further data set deals with MCF7. The data set is described as follows: Cytotoxicity against human MCF7 cells. The data set is classed as functional.
A short description of data set [1]: Cytotoxicity against mouse 9PS cells. The data set is classed as functional.
The subject of the next data set is A549. Nature of the data set: Cytotoxicity against human A549 cells. Format: functional.
Another data set deals with HT-29. Nature of the data set: Cytotoxicity against human HT-29 cells. The data set is classed as functional.
Data set [2] can be described thus: Cytotoxicity against human 9KB cells. Format: functional. The note with it: read-out: ED50 (the source's name).
Data set [3] concerns Agrobacterium tumefaciens. The data set is described as follows: Antitumor activity against Agrobacterium tumefaciens-induced crown gall tumors in potato by disk test. Format: functional.
The nature of data set [4]: In vivo antitumor activity against mouse 3PS cells at 0.25 mg/kg, relative to control. The data set is classed as functional.

With `CC[C@H]1CN2CCc3cc(OC)c(OC)cc3[C@@H]2C[C@@H]1CC1=NCCc2cc(O)c(OC)cc21` [PSYCHOTRINE], the LC50 (in general, the concentration lethal to half of the exposed cells or organisms) in the data set on Artemia is recorded as more than 1000 ppm. The EC50 in the data set with MCF7 (Homo sapiens, MCF7, read-out: ED50 (the source's name)) was more than 10 µg/mL; in data set [1] (Mus musculus, read-out: ED50 (the source's name)) it was 1 µg/mL (≈ 2.15 µM); in the data set on A549 (Homo sapiens, A549, read-out: ED50 (the source's name)) it was more than 10 µg/mL; in the data set on HT-29 (Homo sapiens, HT-29, read-out: ED50 (the source's name)) it was more than 10 µg/mL.
In the case of `CC[C@H]1CN2CCc3cc(OC)c(OC)cc3[C@@H]2C[C@@H]1C[C@H]1NCCc2c1[nH]c1ccc(O)cc21` [TUBULOSINE], the EC50 in data set [2] was found to be 0.01 µg/mL (≈ 0.021 µM). In addition, the LC50 in the data set with Artemia came to 0.02 ppm. In addition, in data set [3], the “inhibition (INH)” value amounted to 81%. In addition, the ED50 with MCF7 is recorded as less than 1 ×10⁻⁵ ug/ml; in data set [1] it was 3.8 ×10⁻⁴ ug/ml; in the data set with A549, less than 1 ×10⁻⁵ ug/ml; in the data set with HT-29, less than 1 ×10⁻⁵ ug/ml. In addition, in data set [4], the T/C (in general, the ratio of treated to control) turned out to be 186%.
